From patent US20180022750A1, “6-HYDROXYBENZOFURANYL- AND 6-ALKOXYBENZOFURANYL-SUBSTITUTED IMIDAZOPYRIDAZINES” (BAYER PHARMA AKTIENGESELLSCHAFT, priority 2014, published 2018)

Experiments:
[1] = target: T1, human full-length MKNK1 (Homo sapiens, UniProt Q9BUB5, T385D); assay: MKNK1 kinase high ATP assay (TR-FRET, 2 mM ATP); type: biochemical; conditions: ATP 2 mM, 15 min preincubation, GST-MKNK1 (T344D)
T1 construct: GST (Glutathione-S-Transferase) (N); purchased Carna Biosciences 02-145; host or cells: insect cells (baculovirus expression system)
T1 sequence (Q9BUB5 1-424 isoform Q9BUB5-2 T344D): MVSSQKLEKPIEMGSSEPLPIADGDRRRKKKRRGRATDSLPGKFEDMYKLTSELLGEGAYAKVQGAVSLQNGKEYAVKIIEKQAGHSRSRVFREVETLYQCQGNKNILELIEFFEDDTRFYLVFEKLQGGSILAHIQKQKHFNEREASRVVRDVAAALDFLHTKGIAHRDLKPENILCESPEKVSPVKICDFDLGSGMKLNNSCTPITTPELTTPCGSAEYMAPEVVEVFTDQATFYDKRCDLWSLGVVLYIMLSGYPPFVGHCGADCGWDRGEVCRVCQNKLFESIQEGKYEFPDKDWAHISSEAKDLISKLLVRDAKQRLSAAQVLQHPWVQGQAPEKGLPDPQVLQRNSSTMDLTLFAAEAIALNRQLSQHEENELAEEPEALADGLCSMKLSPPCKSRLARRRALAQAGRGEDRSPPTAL
Method: MKNK1-inhibitory activity at high ATP of compounds of the present invention after their preincubation with MKNK1 was quantified employing the TR-FRET-based MKNK1 high ATP assay as described in the following paragraphs.
(§1) A recombinant fusion protein of Glutathione-S-Transferase (GST, N-terminally) and human full-length MKNK1 (amino acids 1-424 and T344D of accession number BAA 19885.1), expressed in insect cells using baculovirus expression system and purified via glutathione sepharose affinity chromatography, was purchased from Carna Biosciences (product no 02-145) and used as enzyme. As substrate for the kinase reaction the biotinylated peptide biotin-Ahx-IKKRKLTRRKSLKG (C-terminus in amide form) was used, which can be purchased e.g. from the company Biosyntan (Berlin-Buch, Germany).
(§2) For the assay 50 nL of a 100fold concentrated solution of the test compound in DMSO was pipetted into a black low volume 384well microtiter plate (Greiner Bio-One, Frickenhausen, Germany), 2 μL of a solution of MKNK1 in aqueous assay buffer [50 mM HEPES pH 7.5, 5 mM magnesium chloride, 1.0 mM dithiothreitol, 0.005% (v/v) Nonidet-P40 (Sigma)] was added and the mixture was incubated for 15 min at 22° C. to allow pre-binding of the test compounds to the enzyme before the start of the kinase reaction. Then the kinase reaction was started by the addition of 3 μL of a solution of adenosine-tri-phosphate (ATP, 3.3 mM=>final conc. in the 5 μL assay volume is 2 mM) and substrate (0.1 μM=>final conc. in the 5 μL assay volume is 0.06 μM) in assay buffer and the resulting mixture was incubated for a reaction time of 30 min at 22° C. The concentration of MKNK1 was adjusted depending of the activity of the enzyme lot and was chosen appropriate to have the assay in the linear range, typical concentrations were in the range of 0.003 μg/mL. The reaction was stopped by the addition of 5 μL of a solution of TR-FRET detection reagents (5 nM streptavidine-XL665 [Cisbio Bioassays, Codolet, France] and 1 nM anti-ribosomal protein S6 (pSer236)-antibody from Invitrogen [#44921G] and 1 nM LANCE EU-W1024 labeled ProteinG [Perkin-Elmer, product no. AD0071]) in an aqueous EDTA-solution (100 mM EDTA, 0.1% (w/v) bovine serum albumin in 50 mM HEPES pH 7.5).
(§3) The resulting mixture was incubated for 1 h at 22° C. to allow the formation of complex between the phosphorylated biotinylated peptide and the detection reagents. Subsequently the amount of phosphorylated substrate was evaluated by measurement of the resonance energy transfer from the Eu-chelate to the streptavidine-XL. Therefore, the fluorescence emissions at 620 nm and 665 nm after excitation at 350 nm were measured in a TR-FRET reader, e.g. a Rubystar (BMG Labtechnologies, Offenburg, Germany) or a Viewlux (Perkin-Elmer). The ratio of the emissions at 665 nm and at […] was taken as the measure for the amount of phosphorylated substrate. The data were normalised (enzyme reaction without inhibitor=0% inhibition, all other assay components but no enzyme=100% inhibition).

[2] = target: T2, human full-length MKNK1 (Homo sapiens, UniProt Q9BUB5); assay: MKNK1 kinase assay (TR-FRET, 10 μM ATP); type: biochemical; conditions: ATP 10 μM, 15 min preincubation, GST-MKNK1 (T344D)
T2 construct: GST (Glutathione-S-Transferase) (N); purchased Carna Biosciences 02-145; host or cells: insect cells (baculovirus expression system)
T2 sequence (Q9BUB5 1-424 isoform Q9BUB5-2 T344D): as above
Excerpt: MKNK1-inhibitory activity of compounds of the present invention was quantified employing the MKNK1 TR-FRET assay as described in the following paragraphs.
as §1, with “was used” for “was used,”, “e.g. form” for “e.g. from”
as §2, with “16.7 μM=>final” for “3.3 mM=>final”, “10 μM)” for “2 mM)”, “45” for “30”, “0.05 μg/ml.” for “0.003 μg/mL.”
as §3

| Compound | IC50 [1] [nM] | IC50 [2] [nM] |
| --- | --- | --- |
| COCCCOc1ccc2ncc(-c3cc4ccc(OC)cc4o3)n2n1 [Example 2, 3-(6-methoxy-1-benzofuran-2-yl)-6-(3-methoxypropoxy)imidazo[1,2-b]-pyridazine] | 5520 | 864 |
| CC(=O)NC[C@@H](C)Oc1ccc2ncc(-c3cc4ccc(O)cc4o3)n2n1 [Example 5, N-[(2R)-2-{[3-(6-hydroxy-1-benzofuran-2-yl)imidazo[1,2-b]pyridazin-6-yl]oxy}-propyl]acetamide] | 37.7 | 40.2 |
| COc1ccc2cc(-c3cnc4ccc(OCC(C)(C)CN(C)C)nn34)oc2c1 [Example 7, 3-{[3-(6-methoxy-1-benzofuran-2-yl)imidazo[1,2-b]pyridazin-6-yl]oxy}-N,N,2,2-tetramethylpropan-1-amine] | 14800 | 5440 |
| COc1ccc2cc(-c3cnc4ccc(OCCCCN(C)C)nn34)oc2c1 [Example 9, 4-{[3-(6-methoxy-1-benzofuran-2-yl)imidazo[1,2-b]pyridazin-6-yl]oxy}-N,N-dimethylbutan-1-amine] | 1010 | 434 |
| CCN(CC)CCCC(C)Oc1ccc2ncc(-c3cc4ccc(OC)cc4o3)n2n1 (stereo not drawn) [Example 10, N,N-diethyl-4-{[3-(6-methoxy-1-benzofuran-2-yl)imidazo[1,2-b]pyridazin-6-yl]-oxy}pentan-1-amine] | 352 | 127 |
| COc1ccc2cc(-c3cnc4ccc(OCCC5CCCN5C)nn34)oc2c1 (stereo not drawn) [Example 11, 3-(6-methoxy-1-benzofuran-2-yl)-6-[2-(1-methylpyrrolidin-2-yl)ethoxy]imidazo-[1,2-b]pyridazine] | 1150 | 664 |
| COc1ccc2cc(-c3cnc4ccc(OCCN5CCNC5=O)nn34)oc2c1 [Example 12, 1-(2-{[3-(6-methoxy-1-benzofuran-2-yl)imidazo[1,2-b]pyridazin-6-yl]oxy}ethyl)-imidazolidin-2-one] | 2390 | 410 |
| COc1ccc2cc(-c3cnc4ccc(OCCCN5CCOCC5)nn34)oc2c1 [Example 13, 3-(6-methoxy-1-benzofuran-2-yl)-6-[3-(morpholin-4-yl)propoxy]imidazo[1,2-b]-pyridazine] | 2130 | 567 |

Now from value to molecule:

| IC50 [1] [nM] | IC50 [2] [nM] | Compound |
| --- | --- | --- |
| 2570 | 714 | COc1ccc2cc(-c3cnc4ccc(OCCCO)nn34)oc2c1 [Example 1, 3-{[3-(6-methoxy-1-benzofuran-2-yl)imidazo[1,2-b]pyridazin-6-yl]oxy}propan-1-ol] |
| 2550 | 977 | COc1ccc2cc(-c3cnc4ccc(OCCN)nn34)oc2c1 [Example 3, 2-{[3-(6-methoxy-1-benzofuran-2-yl)imidazo[1,2-b]pyridazin-6-yl]oxy}ethanamine] |
| 42.1 | 49.1 | C[C@H](CN)Oc1ccc2ncc(-c3cc4ccc(O)cc4o3)n2n1 [Example 4, 2-(6-{[(2R)-1-aminopropan-2-yl]oxy}imidazo[1,2-b]pyridazin-3-yl)-1-benzofuran-6-ol] |
| 913 | 343 | COc1ccc2cc(-c3cnc4ccc(OCCCN)nn34)oc2c1 [Example 6, 3-{[3-(6-methoxy-1-benzofuran-2-yl)imidazo[1,2-b]pyridazin-6-yl]oxy}propan-1-amine] |
| 798 | 217 | COc1ccc2cc(-c3cnc4ccc(OCCCCN)nn34)oc2c1 [Example 8, 4-{[3-(6-methoxy-1-benzofuran-2-yl)imidazo[1,2-b]pyridazin-6-yl]oxy}butan-1-amine] |
| 3810 | 997 | COc1ccc2cc(-c3cnc4ccc(O[C@H](C)CNC(C)=O)nn34)oc2c1 [Example 14, N-[(2R)-2-{[3-(6-methoxy-1-benzofuran-2-yl)imidazo[1,2-b]pyridazin-6-yl]oxy}-propyl]acetamide] |
| 2820 | 1320 | COc1ccc2cc(-c3cnc4ccc(O[C@H](C)CN)nn34)oc2c1 [Example 15, (2R)-2-{[3-(6-methoxy-1-benzofuran-2-yl)imidazo[1,2-b]pyridazin-6-yl]oxy}-propan-1-amine] |
